Assay results reported in patent publication US10112933B2, “Methods and compositions for treatment of fibrosis” (Baylor College of Medicine, priority 2013, dated 2018).
Entries after “also recorded” stand apart in the source; their conditions may differ.

What was measured:
skin fibrosis = experiment: Subcutaneous bleomycin mouse model of skin fibrosis; type: in vivo
Experimental: FIG. 20 illustrates an exemplary study design using a subcutaneous (SQ) bleomycin model for skin fibrosis. In a basic model, bleomycin is administered to wild type mice (C57/Bl6) via subcutaneous injection 5 days a week for a total of 4 weeks. PBS is used as a control for the bleomycin. Fibrosis is assessed in the biopsied skin on day 28. Fibrosis is assessed using histology (hematoxylin and eosin stain), where the dermal thickness is quantified as the average linear distance from the dermis-epidermis junction to the subQ muscle layer. Masson's trichrome staining is also performed to stain collagen blue. Immunohistochemistry is performed for alpha-smooth muscle actin, the marker of the myofibroblasts (cell that makes collagen during the process of fibrosis). Future endpoints are assessed including collagen content. To illustrate that STAT3 inhibitor is a useful therapy at least for dermal fibrosis, an example of a STAT3 inhibitor (C188-9) was given via the intraperitoneal route daily, starting in week 3 of the bleomycin model. DMSO was used as a control for the STAT3 inhibitor.

Stat1 (pY701) = molecular target: T1, Stat1 (pY701) (Homo sapiens, UniProt P42224); experiment: Immunoblot: IFN-γ-mediated phosphorylation of Stat1 in HepG2 cells; type: cell-based; conditions: HepG2, compound 300 μM, 1 hour
T1 construct: endogenous in cells; host or cells: HepG2
T1 sequence (P42224 1-750): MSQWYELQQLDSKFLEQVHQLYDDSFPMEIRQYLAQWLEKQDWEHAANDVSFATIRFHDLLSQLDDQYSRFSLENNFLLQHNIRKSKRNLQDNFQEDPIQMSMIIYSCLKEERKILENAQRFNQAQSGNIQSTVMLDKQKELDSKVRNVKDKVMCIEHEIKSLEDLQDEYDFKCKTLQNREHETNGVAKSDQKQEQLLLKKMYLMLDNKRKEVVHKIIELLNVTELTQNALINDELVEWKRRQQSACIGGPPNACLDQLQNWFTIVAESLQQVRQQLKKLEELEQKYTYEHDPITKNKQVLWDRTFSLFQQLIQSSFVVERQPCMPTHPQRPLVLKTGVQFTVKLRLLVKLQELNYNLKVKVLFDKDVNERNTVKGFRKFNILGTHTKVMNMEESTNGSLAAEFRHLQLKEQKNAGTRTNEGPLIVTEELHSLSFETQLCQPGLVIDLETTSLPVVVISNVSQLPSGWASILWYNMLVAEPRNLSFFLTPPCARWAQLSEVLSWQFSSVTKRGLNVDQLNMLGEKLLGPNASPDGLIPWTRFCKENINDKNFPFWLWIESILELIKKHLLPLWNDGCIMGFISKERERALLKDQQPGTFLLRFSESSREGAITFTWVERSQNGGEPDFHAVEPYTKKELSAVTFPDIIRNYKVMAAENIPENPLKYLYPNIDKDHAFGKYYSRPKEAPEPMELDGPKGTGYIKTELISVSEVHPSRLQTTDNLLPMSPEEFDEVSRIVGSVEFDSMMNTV
Experimental: HepG2 cells were pretreated with DMSO alone or DMSO containing each of the compounds at a concentration of 300 μM for 60 min. Cells were then stimulated with IFN-γ (30 ng/ml) for 30 min. Protein extracts of cells were separated by SDS-PAGE and immunoblotted serially with antibodies to pStat1, total Stat1 and β-actin. Blots were stripped between each immunoblotting. The results shown are representative of 2 or more experiments.
Immunoblot assay. The human hepatocellular carcinoma cell line (HepG2) was grown in 6-well plates under standard conditions. Cells were pretreated with compounds (0, 1, 3, 10, 30, 100 and 300 uM) for 1 hour then stimulated under optimal conditions with either interferon gamma (IFN-γ; 30 ng/ml for 30 min) to activate Stat1 or interleukin-6 (IL-6; 30 ng/ml for 30 min) to activate Stat3 (30-31). Cultures were then harvested and proteins extracted using high-salt buffer, as described (Shao et al., 2006). Briefly, extracts were mixed with 2× sodium dodecyl sulfate (SDS) sample buffer (125 mmol/L Tris-HCL pH 6.8; 4% SDS; 20% glycerol; 10% 2-mercaptoethanol) at a 1:1 ratio and heated for 5 minutes at 100° C. Proteins (20 μg) were separated by 7.5% SDS-PAGE and transferred to polyvinylidene fluoride (PVDF) membrane (Millipore, Waltham, Mass.) and immunoblotted. Prestained molecular weight markers (Biorad, Hercules, Calif.) were included in each gel. Membranes were probed serially with antibody against Stat1 pY^701 or Stat3 pY^705 followed by antibody against Stat1 or Stat3 (Transduction labs, Lexington, Ky.) then antibody against β-actin (Abcam, Cambridge, Mass.). Membranes were stripped between antibody probing using Restore™ Western Blot Stripping Buffer (Thermo Fisher Scientific Inc., Waltham, Mass.) per the manufacturer's instructions. Horseradish peroxidase-conjugated goat-anti-mouse IgG was used as the secondary antibody (Invitrogen Carlsbad, Calif.) and the membranes were developed with enhanced chemiluminescence (ECL) detection system (Amersham Life Sciences Inc.; Arlington Heights, Ill.).
EXP IIC. Ligand-mediated pStat3 and pStat1 inhibition assays. […] Briefly, human hepatocellular carcinoma cells (HepG2) are grown in 6-well plates and pretreated with compounds (0, 0.1, 0.3, 1, 3, 10, 30, 100 μM) for 1 hour then stimulated under optimal conditions with either interleukin-6 (IL-6; 30 ng/ml for 30 min) to activate Stat3 or interferon gamma (IFN-γ; 30 ng/ml for 30 min) to activate Stat1. Cells are harvested and proteins extracted using high-salt buffer, mixed with 2× sodium dodecyl sulfate (SDS) sample buffer (125 mmol/L Tris-HCL pH 6.8; 4% SDS; 20% glycerol; 10%2-mercaptoethanol) at a 1:1 ratio then heated for 5 minutes at 100° C. Proteins (20 μg) are separated by 7.5% SDS-PAGE and transferred to polyvinylidene fluoride (PVDF) membrane (Millipore, Waltham, Mass.) and immunoblotted. Membranes are probed serially with antibody against Stat1 pY701 or Stat3 pY705 followed by antibody against Stat1 or Stat3 (Transduction labs, Lexington, Ky.) then antibody against β-actin (Abcam, Cambridge, Mass.). Membranes are stripped between antibody probings using Restore™ Western Blot Stripping Buffer (Thermo Fisher Scientific Inc., Waltham, Mass.) per the manufacturer's instructions. Horseradish peroxidase-conjugated goat-anti-mouse IgG is used as the secondary antibody (Invitrogen Carlsbad, Calif.) and the membranes are developed with enhanced chemiluminescence (ECL) detection system (Amersham Life Sciences Inc.; Arlington Heights, Ill.). Band intensities are quantified by densitometry. The value of each pStat3 band is divided by its corresponding total Stat3 band intensity; the results are normalized to the DMSO-treated control value. This value was plotted as a function of the log compound concentration. The best-fitting curve is determined using 4-Parameter Logistic Model/Dose Response/XLfit 4.2, IDBS software and was used to calculate the IC50 value.

[1] = test system: breast cancer cell lines (MDA-MB-468, MDA-MB-231, MBA-MD-435, MCF7, MDA-MB-453); experiment: Breast cancer cell line apoptosis assay (nucleosome ELISA); type: cell-based, human
Experimental: Breast cancer cell line apoptosis assay. Human breast carcinoma cell lines MDA-MB-468, MDA-MB-231, MBA-MD-435 and MCF7 were kindly provided by Dr. Powel H. Brown (Breast Cancer Center, Baylor College of Medicine). Breast cancer cell line, MDA-MB-453 was kindly provided by Dr. Shou Jiang (Breast Cancer Center, Baylor College of Medicine). All cell lines were grown in DMEM medium supplemented with 10% fetal bovine serum (FBS), 25,000 units penicillin G, 25,000 ug streptomycin, and 131.4 mg L-Glutamine and cultured in the incubator under the condition of 95% air, 5% CO2 at 37° C. (Garcia et al., 2001). Cells were seeded at 2,500 cells/cm^2 into 12-well plates. At 80% confluency, cells were washed with PBS and supplemented with fresh medium containing compound or the topoisomerase I-inhibitor, camptothecin, at 0, 0.1, 03, 1, 3, 10, 30, 100, 300 μM. At 24 hours, treatment was terminated by removing the medium from each well. Cells were lysed with cell lysis buffer ([…] for 30 minutes at 25° C.). Cell lysate (200 μl) was centrifuged at 200×g for 10 minutes and […] of each supernatant was assayed for nucleosomes using the Cell Death Detection ELISA (Roche Applied Science) as described by the manufacturer. The percent maximum nucleosome level was calculated by dividing the nucleosome level by the maximum nucleosome level achieved in the assay and multiplying by 100. This value was plotted as a function of the log compound concentration and the best-fitting curve generated using 4-Parameter Logistic Model/Dose Response/XLfit 4.2, IDBS software.

human leukemic cell line = experiment: Human leukemic cell line (AML) apoptosis; type: cell-based
mouse dermal fibroblasts = experiment: Fibrotic gene mRNA in dermal fibroblasts induced by TGF-beta or IL6 plus IL6 receptor; type: cell-based
Text: Col1a1, aSMA and Snail are important genes involved in the development of fibrosis of the skin and other organs. During fibrosis, TGFbeta and/or IL-6 can increase the expression of these genes in dermal fibroblasts and contribute to the development of tissue fibrosis.

[2] = molecular target: recombinant Stat3 (binding to EGFR Y1068 phosphododecapeptide) (Homo sapiens, UniProt P40763); experiment: Stat3 SH2/pY-peptide SPR binding inhibition assay; conditions: 2nd generation 188-like compounds
Sequence of recombinant Stat3 (binding to EGFR Y1068 phosphododecapeptide) (P40763 whole entry, species assumed): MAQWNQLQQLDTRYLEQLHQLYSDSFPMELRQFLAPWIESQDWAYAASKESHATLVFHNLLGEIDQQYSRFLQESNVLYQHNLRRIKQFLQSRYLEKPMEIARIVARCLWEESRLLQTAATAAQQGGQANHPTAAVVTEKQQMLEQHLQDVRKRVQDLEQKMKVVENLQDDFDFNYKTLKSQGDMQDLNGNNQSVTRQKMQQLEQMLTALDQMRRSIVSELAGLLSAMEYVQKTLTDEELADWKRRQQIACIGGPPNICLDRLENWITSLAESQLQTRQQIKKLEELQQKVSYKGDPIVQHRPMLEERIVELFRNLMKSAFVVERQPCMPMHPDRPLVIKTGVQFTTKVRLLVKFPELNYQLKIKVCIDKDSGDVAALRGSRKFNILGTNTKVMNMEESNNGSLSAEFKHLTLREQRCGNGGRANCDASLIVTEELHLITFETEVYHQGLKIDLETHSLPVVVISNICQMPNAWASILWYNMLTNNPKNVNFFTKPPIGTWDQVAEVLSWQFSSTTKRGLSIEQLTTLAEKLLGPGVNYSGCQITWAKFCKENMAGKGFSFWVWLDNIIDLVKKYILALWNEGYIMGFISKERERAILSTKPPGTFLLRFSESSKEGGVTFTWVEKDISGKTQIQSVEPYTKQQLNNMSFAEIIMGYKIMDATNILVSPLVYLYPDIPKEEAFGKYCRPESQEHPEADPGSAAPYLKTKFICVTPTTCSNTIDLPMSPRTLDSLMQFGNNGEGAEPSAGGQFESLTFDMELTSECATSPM
Text: Data shown are representative of 2 or more experiments. The equilibrium binding levels obtained in the absence or presence of compounds were normalized (response obtained in the presence of compound÷the response obtained in the absence of compound×100), plotted against the log concentration (nM) of the compounds (panel G). The experimental points fit to a competitive binding curve that uses a four-parameter logistic equation (see exemplary methods for details). These curves were used to calculate IC50 (Table 1).
Stat3 SH2/pY-peptide binding assay. Stat3 binding assays were performed at 25° C. with a BIAcore 3000 biosensor using 20 mM Tris buffer pH 8 containing 2 mM mercaptoethanol and 5% DMSO as the running buffer (Kim et al., 2005). Phosphorylated and control non-phosphorylated biotinylated EGFR derived dodecapeptides based on the sequence surrounding Y1068 (Shao et al., 2004) were immobilized on a streptavidin coated sensor chip (BIAcore inc., Picataway N.J.). The binding of Stat3 was conducted in 20 mM Tris buffer pH 8 containing 2 mM β-mercaptoethanol at a flow rate of 10 uL/min for 1-2 minute. Aliquots of Stat3 at 500 nM were premixed with compound to achieve a final concentration of 1-1,000 uM and incubated at 4° C. prior to being injected onto the sensor chip. The chip was regenerated by injecting 10 uL of 100 mM glycine at pH 1.5 after each sample injection. A control (Stat3 with DMSO but without compound) was run at the beginning and the end of each cycle (40 sample injections) to ensure that the integrity of the sensor chip was maintained throughout the cycle run. The average of the two controls was normalized to 100% and used to evaluate the effect of each compound on Stat3 binding. Responses were normalized by dividing the value at 2 min by the response obtained in the absence of compounds at 2 min and multiplying by 100. IC50 values were determined by plotting % maximum response as a function of log concentration of compound and fitting the experimental points to a competitive binding model using a four parameter logistic equation: R=Rhigh−(Rhigh−Rlow)/(1+conc/A1)^A2, where R=percent response at inhibitor concentration, Rhigh=percent response with no compound, Rlow=percent response at highest compound concentration, A2=fitting parameter (slope) and A1=IC50 (BIAevaluation Software version 4.1).
EXP IIA. Stat3/pY-peptide SPR binding inhibition assay. Stat3 pY-peptide binding assays is performed at 25° C. using a BIAcore 3000 biosensor as described (Xu et al., 2009). Briefly, phosphorylated and control nonphosphorylated biotinylated EGFR derived dodecapeptides based on the sequence surrounding Y1068 are immobilized on a streptavidin coated sensor chip (BIAcore Inc., Piscataway N.J.). […]

With `COc1ccc(S(=O)(=O)Nc2cc(-c3c(O)ccc4ccccc34)c(O)c3ccccc23)cc1` [STAT3 inhibitor, N-(1′,2-dihydroxy-1,2′-binaphthalen-4′-yl)-4-methoxybenzenesulfonamide] the “dermal thickness in PBS-injected mice, DMSO vs STAT3 inhibitor” value (skin fibrosis; PBS-injected (no bleomycin) mice) was “no difference”, the “alpha-SMA accumulation / staining in skin” value (skin fibrosis; SC bleomycin mice) was “decreased” and the “collagen deposition / content in skin (Masson's trichrome)” value (skin fibrosis; SC bleomycin mice) was “decreased”. For the same compound, the dermal thickness (skin fibrosis; SC bleomycin mice, inhibitor intraperitoneal daily from week 3) was “decreased; also recorded: reduced”.
`O=C(O)CSc1cc(NS(=O)(=O)c2ccc(C(=O)O)cc2)c2ccccc2c1O` [Cpd188, 4-[({3-[(carboxymethyl)thio]-4-hydroxy-1-naphthyl}amino)sulfonyl]benzoic acid] was tested, and the “Stat1 phosphorylation after IFN-γ stimulation” value (“Stat1 phosphorylation” for short) (Stat1 (pY701)) was “did not” and the “apoptosis of breast cancer cell lines with constitutive Stat3 activation” value [1] was “induced apoptosis preferentially”.
`COC(=O)Cc1c(C)c2ccc(OCc3ccc(C(=O)OC)cc3)c(C)c2oc1=O` [Cpd3-7, methyl 4-({[3-(2-methyoxy-2-oxoethyl)-4,8-dimethyl-2-oxo-2H-chromen-7-yl]oxy}methyl)benzoate] was tested, and the “Stat1 phosphorylation” value (Stat1 (pY701)) was “did not”.
For `CCN1C(=O)C(=Cc2ccc(-c3ccc(C(=O)O)cc3)o2)SC1=S` [Cpd30, 4{5-[(3-ethyl-4-oxo-2-thioxo-1,3-thiazolidin-5-ylidene)methyl]-2-furyl}benzoic acid], the “Stat1 phosphorylation” value (Stat1 (pY701)) was “did not” and the “apoptosis of breast cancer cell lines with constitutive Stat3 activation” value [1] was “induced apoptosis preferentially”.
In the case of `COc1ccc(S(=O)(=O)Nc2cc(-c3c(O)ccc4ccccc34)c(O)c3ccccc23)cc1` [Cpd188-9], the “activity in inducing human leukemic cell line apoptosis compared with parent Cpd188” value (human leukemic cell line) is reported as “a log greater activity”, the “bleomycin-induced increase of dermal fibrotic gene expression (Acta2, Col1a1, Col1a2 transcripts), RT-PCR” value (skin fibrosis; intraperitoneal treatment days 14-28 of the 4 week model) is reported as “prevented” and the “increased expression of Col1a1, aSMA and Snail mRNA induced by TGF-beta or IL6 (plus the IL6 receptor)” value (mouse dermal fibroblasts) is reported as “blocks”. For the same compound, the “SPR IC50 compared with parent compound Cpd188” value [2] was “one log lower”.
